Experimental data published in PubChem BioAssay AID2060888 (Molecular Pharmacology Branch, DTP, NCI, 2025).
Each block holds one compound with its values, some of them ahead of it.

Test system: 695427-040-R-J1-PDC complex spheroid viability
Assay: Anticancer human tumor 695427-040-R-J1-PDC patient-derived colon adenocarcinoma cell line growth inhibition [RAS]
Details: for viability, T/C: stronger effect = lower value
In short: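 Multi-cell-type spheroids: tumor cells plus HUVEC endothelial cells and mesenchymal stem cells. RAS-pathway inhibitors were combined with targeted agents, each dosed in half-log steps down from clinical Cmax, or from 10 microM when Cmax was unknown.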

[1] = curve of first compound, second compound 0.000949 µM
[2] = curve of first compound, second compound 0.003 µM
[3] = curve of first compound, second compound 0.00949 µM
[4] = curve of first compound, second compound 0.03 µM
[5] = curve of first compound, second compound 0.0949 µM
[6] = curve of first compound, second compound 0.3 µM
[7] = second compound 0.000949 µM, first compound 0.0316 µM
[8] = second compound 0.000949 µM, first compound 0.1 µM
[9] = second compound 0.000949 µM, first compound 0.316 µM
[10] = second compound 0.000949 µM, first compound 1 µM
[11] = second compound 0.003 µM, first compound 0.0316 µM
[12] = second compound 0.003 µM, first compound 0.1 µM
[13] = second compound 0.003 µM, first compound 0.316 µM
[14] = second compound 0.003 µM, first compound 1 µM
[15] = second compound 0.00949 µM, first compound 0.0316 µM
[16] = second compound 0.00949 µM, first compound 0.1 µM
[17] = second compound 0.00949 µM, first compound 0.316 µM
[18] = second compound 0.00949 µM, first compound 1 µM
[19] = second compound 0.03 µM, first compound 0.0316 µM
[20] = second compound 0.03 µM, first compound 0.1 µM
[21] = second compound 0.03 µM, first compound 0.316 µM
[22] = second compound 0.03 µM, first compound 1 µM
[23] = second compound 0.0949 µM, first compound 0.0316 µM
[24] = second compound 0.0949 µM, first compound 0.1 µM
[25] = second compound 0.0949 µM, first compound 0.316 µM
[26] = second compound 0.0949 µM, first compound 1 µM
[27] = second compound 0.3 µM, first compound 0.0316 µM
[28] = second compound 0.3 µM, first compound 0.1 µM
[29] = second compound 0.3 µM, first compound 0.316 µM
[30] = second compound 0.3 µM, first compound 1 µM
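Note: viability read after seven days of drug exposure.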
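Throughout, for viability, T/C: 100% = DMSO vehicle control viability.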

IC50 [1]: > 10 µM
IC50 [2]: > 10 µM
IC50 [3]: > 10 µM
IC50 [4]: > 10 µM
IC50 [5]: > 10 µM
IC50 [6]: 9.98 µM
SMILES: CC1(O)CCCC1n1c(=O)c(C(F)F)cc2cnc(NC3CCN(S(C)(=O)=O)CC3)nc21 (stereo not drawn) + CCn1c(-c2cccnc2C(C)OC)c2c3cc(ccc31)N1CCOC(CC(NC(=O)C(C(C)C)N(C)C(=O)C3(F)CCN(C(=O)C#CC(C)(C)N(C)C)CC3)C(=O)N3CCCC(N3)C(=O)OCC(C)(C)C2)C1
viability, T/C [7]: 102%
viability, T/C [8]: 104%
viability, T/C [9]: 90.7%
viability, T/C [10]: 104%
viability, T/C (second compound 0.000949 µM, first compound 3.16 µM): 93.1%
viability, T/C (second compound 0.000949 µM, first compound 10 µM): 79.4%
viability, T/C [11]: 102%
viability, T/C [12]: 98.7%
viability, T/C [13]: 95.9%
viability, T/C [14]: 103%
viability, T/C (second compound 0.003 µM, first compound 3.16 µM): 125%
viability, T/C (second compound 0.003 µM, first compound 10 µM): 86.3%
viability, T/C [15]: 108%
viability, T/C [16]: 80.8%
viability, T/C [17]: 97.5%
viability, T/C [18]: 87.6%
viability, T/C (second compound 0.00949 µM, first compound 3.16 µM): 124%
viability, T/C (second compound 0.00949 µM, first compound 10 µM): 88.6%
viability, T/C [19]: 90.2%
viability, T/C [20]: 80%
viability, T/C [21]: 81.3%
viability, T/C [22]: 97.9%
viability, T/C (second compound 0.03 µM, first compound 3.16 µM): 115%
viability, T/C (second compound 0.03 µM, first compound 10 µM): 73.6%
viability, T/C [23]: 77.3%
viability, T/C [24]: 95.7%
viability, T/C [25]: 89.4%
viability, T/C [26]: 113%
viability, T/C (second compound 0.0949 µM, first compound 3.16 µM): 124%
viability, T/C (second compound 0.0949 µM, first compound 10 µM): 71.3%
viability, T/C [27]: 77%
viability, T/C [28]: 94%
viability, T/C [29]: 85%
viability, T/C [30]: 95.7%
viability, T/C (second compound 0.3 µM, first compound 3.16 µM): 95.9%
viability, T/C (second compound 0.3 µM, first compound 10 µM): 49.9%

IC50 (curve of first compound, second compound 0.0316 µM): 1.55 µM
IC50 (curve of first compound, second compound 0.1 µM): 0.933 µM
IC50 (curve of first compound, second compound 0.316 µM): 0.422 µM
IC50 (curve of first compound, second compound 1 µM): 0.168 µM
IC50 (curve of first compound, second compound 3.16 µM): < 0.0316 µM
IC50 (curve of first compound, second compound 10 µM): < 0.0316 µM
SMILES: CC(Nc1ccc2c(c1)OCCn1cc(N3C(=O)OCC3C(F)F)nc1-2)C(N)=O (stereo not drawn) + C#Cc1c(F)ccc2cc(O)cc(-c3ncc4c(N5CC6CCC(C5)N6)nc(OCC56CCCN5CC(F)C6)nc4c3F)c12
viability, T/C (second compound 0.0316 µM, first compound 0.0316 µM): 78.2%
viability, T/C (second compound 0.0316 µM, first compound 0.1 µM): 69.5%
viability, T/C (second compound 0.0316 µM, first compound 0.316 µM): 58.5%
viability, T/C (second compound 0.0316 µM, first compound 1 µM): 52.1%
viability, T/C (second compound 0.0316 µM, first compound 3.16 µM): 47.9%
viability, T/C (second compound 0.0316 µM, first compound 10 µM): 40.1%
viability, T/C (second compound 0.1 µM, first compound 0.0316 µM): 77%
viability, T/C (second compound 0.1 µM, first compound 0.1 µM): 69.7%
viability, T/C (second compound 0.1 µM, first compound 0.316 µM): 59.6%
viability, T/C (second compound 0.1 µM, first compound 1 µM): 49.9%
viability, T/C (second compound 0.1 µM, first compound 3.16 µM): 40.4%
viability, T/C (second compound 0.1 µM, first compound 10 µM): 35.4%
viability, T/C (second compound 0.316 µM, first compound 0.0316 µM): 76.7%
viability, T/C (second compound 0.316 µM, first compound 0.1 µM): 67.1%
viability, T/C (second compound 0.316 µM, first compound 0.316 µM): 52%
viability, T/C (second compound 0.316 µM, first compound 1 µM): 39.9%
viability, T/C (second compound 0.316 µM, first compound 3.16 µM): 40.5%
viability, T/C (second compound 0.316 µM, first compound 10 µM): 30.3%
viability, T/C (second compound 1 µM, first compound 0.0316 µM): 63.1%
viability, T/C (second compound 1 µM, first compound 0.1 µM): 54%
viability, T/C (second compound 1 µM, first compound 0.316 µM): 45.9%
viability, T/C (second compound 1 µM, first compound 1 µM): 34.8%
viability, T/C (second compound 1 µM, first compound 3.16 µM): 31.9%
viability, T/C (second compound 1 µM, first compound 10 µM): 23.1%
viability, T/C (second compound 3.16 µM, first compound 0.0316 µM): 47.4%
viability, T/C (second compound 3.16 µM, first compound 0.1 µM): 38.3%
viability, T/C (second compound 3.16 µM, first compound 0.316 µM): 30.3%
viability, T/C (second compound 3.16 µM, first compound 1 µM): 23.9%
viability, T/C (second compound 3.16 µM, first compound 3.16 µM): 22%
viability, T/C (second compound 3.16 µM, first compound 10 µM): 16.9%
viability, T/C (second compound 10 µM, first compound 0.0316 µM): 33.8%
viability, T/C (second compound 10 µM, first compound 0.1 µM): 22.1%
viability, T/C (second compound 10 µM, first compound 0.316 µM): 17.1%
viability, T/C (second compound 10 µM, first compound 1 µM): 13.6%
viability, T/C (second compound 10 µM, first compound 3.16 µM): 12%
viability, T/C (second compound 10 µM, first compound 10 µM): 10.9%

IC50 (curve of compound): > 10 µM
SMILES: Cc1nc(N2CCC3(CC2)COC(C)C3N)c(CO)nc1Sc1ccnc(N)c1Cl (stereo not drawn)
viability, T/C (compound 0.0316 µM): 87% [middle of 4 runs]
viability, T/C (compound 0.1 µM): 85.2% [middle of 4 runs]
viability, T/C (compound 0.316 µM): 73.3% [middle of 4 runs]
viability, T/C (compound 1 µM): 76.3% [middle of 4 runs]
viability, T/C (compound 3.16 µM): 65.7% [middle of 4 runs]
viability, T/C (compound 10 µM): 59.8% [middle of 4 runs]

IC50 [1]: > 1 µM
IC50 [2]: 0.524 µM
IC50 [3]: 0.593 µM
IC50 [4]: 0.112 µM
IC50 [5]: < 0.00316 µM
IC50 [6]: < 0.00316 µM
SMILES: Nc1ccn(C2OC(CO)C(O)C2(F)F)c(=O)n1 (stereo not drawn) + CCn1c(-c2cc(N3CCN(C)CC3)cnc2C(C)OC)c2c3cc(ccc31)-c1csc(n1)CC(NC(=O)C1CC1C)C(=O)N1CCCC(N1)C(=O)OCC(C)(C)C2
viability, T/C (second compound 0.000949 µM, first compound 0.00316 µM): 69.9%
viability, T/C (second compound 0.000949 µM, first compound 0.01 µM): 97.5%
viability, T/C [7]: 81.8%
viability, T/C [8]: 69.3%
viability, T/C [9]: 67%
viability, T/C [10]: 54.2%
viability, T/C (second compound 0.003 µM, first compound 0.00316 µM): 109%
viability, T/C (second compound 0.003 µM, first compound 0.01 µM): 88.6%
viability, T/C [11]: 78.5%
viability, T/C [12]: 66.2%
viability, T/C [13]: 54.5%
viability, T/C [14]: 44.2%
viability, T/C (second compound 0.00949 µM, first compound 0.00316 µM): 80%
viability, T/C (second compound 0.00949 µM, first compound 0.01 µM): 77.7%
viability, T/C [15]: 60.9%
viability, T/C [16]: 58.5%
viability, T/C [17]: 57.5%
viability, T/C [18]: 45.3%
viability, T/C (second compound 0.03 µM, first compound 0.00316 µM): 56.4%
viability, T/C (second compound 0.03 µM, first compound 0.01 µM): 63.1%
viability, T/C [19]: 52.2%
viability, T/C [20]: 47.1%
viability, T/C [21]: 48.4%
viability, T/C [22]: 37.5%
viability, T/C (second compound 0.0949 µM, first compound 0.00316 µM): 42.4%
viability, T/C (second compound 0.0949 µM, first compound 0.01 µM): 47.1%
viability, T/C [23]: 40.6%
viability, T/C [24]: 36%
viability, T/C [25]: 25.7%
viability, T/C [26]: 30.1%
viability, T/C (second compound 0.3 µM, first compound 0.00316 µM): 34.5%
viability, T/C (second compound 0.3 µM, first compound 0.01 µM): 40.1%
viability, T/C [27]: 34.8%
viability, T/C [28]: 33.1%
viability, T/C [29]: 31.6%
viability, T/C [30]: 26.5%

SMILES: CCn1c(-c2cc(N3CCN(C)CC3)cnc2C(C)OC)c2c3cc(ccc31)-c1csc(n1)CC(NC(=O)C1CC1C)C(=O)N1CCCC(N1)C(=O)OCC(C)(C)C2 (stereo not drawn)
viability, T/C (compound 0.003 µM): 92.1% [middle of 8 runs]
viability, T/C (compound 0.00949 µM): 78.3% [middle of 8 runs]
viability, T/C (compound 0.03 µM): 60.2% [middle of 8 runs]
viability, T/C (compound 0.0949 µM): 51.3% [middle of 8 runs]
viability, T/C (compound 0.3 µM): 43% [middle of 8 runs]
